Data as given in article PMC10410440, “Preclinical PK investigation of a novel IDO1/TDO dual inhibitor—SHR9146 in mouse plasma and tissues by LC-MS/MS” (Frontiers in Oncology, 2023).
Entries after “also recorded” stand apart in the source; their conditions may differ. Read-outs that look alike come from different tables or passages of the source.

Experiment: Tissue distribution of SHR9146 in mice after oral gavage of 40 mg/kg
Format: in vivo, ICR mice
Settings: for concentration at 6 h / concentration at 24 h / concentration at 1 h / concentration at 3 h: male, ICR, mouse, po, 40 mg/kg oral gavage
Procedure: ICR mice with body weight 16–26 g were supplied by Shanghai Lingchang Biotechnology Co., Ltd. (animal breeding license number SCXK (Shanghai) 2013-0018) and housed at Shanghai Institute of Materia Medica, Chinese Academy of Sciences [animal use license number SYXK (Shanghai) 2015-0027]. The mice used in this study were fasted overnight for 12 h but had free access to water. Food was supplied 4 h post-dose. All experiments in this study were conducted in accordance with the Guidelines for the Care and Use of Laboratory Animals of Shanghai Institute of Materia Medica, Chinese Academy of Sciences.
Another set of 30 mice were randomly assigned into five groups with equal numbers, males and females, for tissue distribution study with oral gavage at a single dose of 40 mg/kg at predetermined different time points: pre-dose and post dose at 1, 3, 6, and 24 h, respectively. The whole brain, heart, liver, spleen, lung, kidney, bladder, pancreas, testis, ovary, uterus, stomach, small intestine, adrenal gland, skin, skeletal muscle, thyroid gland, and abdominal fat tissues as well as the whole blood and plasma samples were harvested. Tissue samples were washed with 0.9% sodium chloride solution to remove the residual blood or contents, blotted on a filter paper, and stored at −70°C prior to the analysis.
Protein precipitation was selected for the pretreatment of both the plasma and the tissue homogenate prepared after thawing at room temperature, cut into pieces, and homogenized with a quintuple methanol–water mixture (1:1, v/v) for each tissue sample.
Briefly as follows, an aliquot of 25-μL plasma or tissue homogenate was spiked with 100 μL of internal standard solution (1 μg/mL for plasma, 0.2 μg/mL for tissue homogenate) and 300 μL of methanol added and vortex mixed for 60 s. The mixture was then centrifuged at 14,000 rpm at 4°C for 5.0 min, and the supernatant was diluted with methanol–water (4:1, v/v) in a ratio of 1:9 for the plasma or 1:1 for the tissue homogenate, and 5 μL of the resulting solution was injected for the LC-MS/MS analysis.
After oral administration of 40 mg/kg SHR9146, samples in different tissues at predetermined time points (pre-drug administration, post-drug administration at 1, 3, 6, and 24 h) were collected and prepared for the analysis. The drug concentrations of SHR9146 (μg/g or μg/mL) were determined for each mouse, and the mean and standard deviation were further obtained (Table S7).

[1] = kidney, 40 mg/kg, Mean (n=3), read-out: SHR9146 concentration in Kidney
[2] = liver, 40 mg/kg, Mean (n=3), read-out: SHR9146 concentration in Liver
[3] = liver, 40 mg/kg, individual mice, read-out: SHR9146 concentration in Liver
[4] = lung, 40 mg/kg, Mean (n=3), read-out: SHR9146 concentration in Lung
[5] = lung, 40 mg/kg, individual mice, read-out: SHR9146 concentration in Lung
[6] = pancreas, 40 mg/kg, Mean (n=3), read-out: SHR9146 concentration in Pancreas
[7] = pancreas, 40 mg/kg, individual mice, read-out: SHR9146 concentration in Pancreas
[8] = plasma, 40 mg/kg, Mean (n=3), read-out: SHR9146 concentration in Plasma
[9] = plasma, 40 mg/kg, individual mice, read-out: SHR9146 concentration in Plasma
[10] = skeletal muscle, 40 mg/kg, Mean (n=3), read-out: SHR9146 concentration in Skeletal muscle
[11] = skeletal muscle, 40 mg/kg, individual mice, read-out: SHR9146 concentration in Skeletal muscle
[12] = skin, 40 mg/kg, Mean (n=3), read-out: SHR9146 concentration in Skin
[13] = small intestine, 40 mg/kg, Mean (n=3), read-out: SHR9146 concentration in Small intestine
[14] = small intestine, 40 mg/kg, individual mice, read-out: SHR9146 concentration in Small intestine
[15] = spleen, 40 mg/kg, Mean (n=3), read-out: SHR9146 concentration in Spleen
[16] = spleen, 40 mg/kg, individual mice, read-out: SHR9146 concentration in Spleen
[17] = stomach, 40 mg/kg, Mean (n=3), read-out: SHR9146 concentration in Stomach
[18] = testis, 40 mg/kg, Mean (n=3), read-out: SHR9146 concentration in Testis
[19] = thyroid gland, 40 mg/kg, Mean (n=3), read-out: SHR9146 concentration in thyroid gland
[20] = thyroid gland, 40 mg/kg, individual mice, read-out: SHR9146 concentration in thyroid gland
[21] = whole blood, 40 mg/kg, Mean (n=3), read-out: SHR9146 concentration in Whole blood
[22] = whole blood, 40 mg/kg, individual mice, read-out: SHR9146 concentration in Whole blood

OCCn1cc(-c2ccc(N3CCC([C@H]4c5c(F)cccc5-c5cncn54)CC3)cc2)cn1 [SHR9146]
concentration at 6 h [1]: 210 ng/g | concentration at 24 h [1]: 18 ng/g | concentration at 24 h (kidney, 40 mg/kg, individual mice, read-out: SHR9146 concentration in Kidney): 55 ng/g | concentration at 1 h [2]: 20000 ng/g | concentration at 1 h [3]: 22000 ng/g | concentration at 3 h [2]: 9670 ng/g | concentration at 6 h [2]: 633 ng/g | concentration at 24 h [2]: 110 ng/g | concentration at 24 h [3]: 330 ng/g | concentration at 1 h [4]: 12500 ng/g | concentration at 1 h [5]: 13100 ng/g | concentration at 3 h [4]: 5160 ng/g | concentration at 6 h [4]: 645 ng/g | concentration at 6 h [5]: 725 ng/g | concentration at 24 h [4]: 11700 ng/g | concentration at 1 h [6]: 12600 ng/g | concentration at 1 h [7]: 13800 ng/g | concentration at 3 h [6]: 4870 ng/g | concentration at 6 h [6]: 67 ng/g | concentration at 6 h [7]: 74 ng/g | concentration at 1 h [8]: 9120 ng/mL | concentration at 1 h [9]: 10100 ng/mL | concentration at 3 h [8]: 3710 ng/mL | concentration at 6 h [8]: 49 ng/mL | concentration at 6 h [9]: 53 ng/mL | concentration at 1 h [10]: 5600 ng/g | concentration at 1 h [11]: 6100 ng/g | concentration at 3 h [10]: 2220 ng/g | concentration at 6 h [10]: 23 ng/g | concentration at 6 h [11]: 70 ng/g | concentration at 1 h [12]: 7210 ng/g | concentration at 3 h [12]: 3110 ng/g | concentration at 6 h [12]: 113 ng/g | concentration at 24 h [12]: 21 ng/g | concentration at 24 h (skin, 40 mg/kg, individual mice, read-out: SHR9146 concentration in Skin): 64 ng/g | concentration at 1 h [13]: 22700 ng/g | concentration at 1 h [14]: 19200 ng/g | concentration at 3 h [13]: 6910 ng/g | concentration at 6 h [13]: 90 ng/g | concentration at 6 h [14]: 117 ng/g | concentration at 1 h [15]: 4840 ng/g | concentration at 1 h [16]: 5540 ng/g | concentration at 3 h [15]: 1700 ng/g | concentration at 6 h [15]: 17 ng/g | concentration at 6 h [16]: 51 ng/g | concentration at 1 h [17]: 38000 ng/g | concentration at 1 h (stomach, 40 mg/kg, individual mice, read-out: SHR9146 concentration in Stomach): 39900 ng/g | concentration at 3 h [17]: 10200 ng/g | concentration at 6 h [17]: 1140 ng/g | concentration at 24 h [17]: 499 ng/g | concentration at 1 h [18]: 4000 ng/g | concentration at 1 h (testis, 40 mg/kg, individual mice, read-out: SHR9146 concentration in Testis): 4160 ng/g | concentration at 3 h [18]: 1660 ng/g | concentration at 6 h [18]: 100 ng/g | concentration at 1 h [19]: 7010 ng/g | concentration at 1 h [20]: 7250 ng/g | concentration at 3 h [19]: 2730 ng/g | concentration at 6 h [19]: 63 ng/g | concentration at 6 h [20]: 71 ng/g | concentration at 1 h [21]: 6060 ng/mL | concentration at 1 h [22]: 6820 ng/mL | concentration at 3 h [21]: 2440 ng/mL | concentration at 6 h [21]: 22 ng/mL | concentration at 6 h [22]: 67 ng/mL | distribution into brain (oral 40 mg/kg, mice, 40 mg/kg): lowest; also recorded: rarely distributed in the brain | tissue distribution (oral 40 mg/kg, mice, 40 mg/kg): widely distributed in various tissues and mainly distributed in the stomach, adrenal gland, liver, and lung | tissue concentration at 24 h as share of the highest concentration (oral 40 mg/kg, mice, last time point 24 h): around 3.1%
